From patent US8680111B2 (Pfizer Inc., priority 2012, dated 2014)

What was measured:
[1] = biological target: T1, human recombinant wild-type ALK kinase domain (amino acids 1093-1411) (Homo sapiens, UniProt Q9UM73); assay: Wild-type ALK enzyme assay (microfluidic mobility shift); type: biochemical; conditions: ATP 60 μM, competitive inhibition fit, read-out: WT ALK enzyme assay (Ki)
T1 construct: ALK kinase domain (amino acids 1093-1411); made in house
Protocol: The reactions were incubated for 1 h at room temperature, stopped by the addition of 0.1 M EDTA, pH 8, and the extent of reactions (˜15-20% conversion with no inhibitor) was determined after electrophoretic separation of the fluorescently labeled peptide substrate and phosphorylated product on an LabChip EZ Reader II (Caliper Life Sciences, Hopkinton, Mass.).

[2] = biological target: T2, human recombinant L1196M ALK kinase domain (amino acids 1093-1411) (Homo sapiens, UniProt Q9UM73, L1196M); assay: L1196M mutant ALK enzyme assay (microfluidic mobility shift); type: biochemical; conditions: ATP 60 μM, 0.5 nM enzyme, competitive inhibition fit; read-out: L1196M ALK enzyme assay (Ki)
T2 construct: ALK kinase domain (amino acids 1093-1411); made in house

[3] = biological target: T3, WT EML4-ALK (NIH-3T3 EML4-ALK wt v1 cells) (Homo sapiens, UniProt Q9UM73); assay: Cellular phospho-ALK (Tyr1604) ELISA assay for WT EML4-ALK; type: cell-based; conditions: 1 hour, read-out: ELISA assay for WT EML4-ALK (IC50)
T3 construct: expressed in transfected cells; the other entry of the earlier key: EML4 (Q9HC35, Echinoderm microtubule-associated protein-like 4)

[4] = biological target: T4, L1196M EML4-ALK (NIH-3T3 EML4-ALK v1 L1196M cells) (Homo sapiens, UniProt Q9UM73, L1196M); assay: Cellular phospho-ALK (Tyr1604) ELISA assay for L1196M EML4-ALK; type: cell-based; conditions: NIH-3T3 EML4-ALK v1 L1196M cells, 1 hour, phospho-ALK (Tyr1604); read-out: ELISA assay for L1196M EML4-ALK (IC50)
T4 construct: expressed in transfected cells; the other entry of the earlier key: EML4 (Q9HC35, Echinoderm microtubule-associated protein-like 4)

Compound	Ki [1]	Ki [2]	IC50 [3]	IC50 [4]
C[C@H]1Oc2cc(cnc2N)-c2c(nc3ccccn23)CN(C)C(=O)c2ccc(F)cc21 [Example 50, (5R)-8-amino-3-fluoro-5,19-dimethyl-18,19-dihydro-7,11-(metheno)pyrido-[2′,1′:2,3]imidazo[4,5-h][2,5,11]benzoxadiazacyclotetradecin-20(5H)-one]	0.14 nM	1.2 nM	2.37 nM	29.7 nM
C[C@H]1Oc2cc(cnc2N)-c2c(nn(C)c2C#N)CN(C2CC2)C(=O)c2ccc(F)cc21 [Example 55, (10R)-7-amino-16-cyclopropyl-12-fluoro-2,10-dimethyl-15-oxo-10,15,16,17-tetrahydro-2H-8,4-(metheno)pyrazolo[4,3-h][2,5,11]benzoxadiazacyclotetradecine-3-carbonitrile]	< 0.07 nM	0.24 nM	1.03 nM	13.4 nM
CC1Cc2cc(cnc2N)-c2c(nn(C)c2C#N)CN(C)C(=O)c2ccc(F)cc21 (stereo not drawn) [Example 61, 7-amino-12-fluoro-2,10,16-trimethyl-15-oxo-2,9,10,15,16,17-hexahydro-8,4-(metheno)pyrazolo[3,4-d][2,8]benzodiazacyclotetradecine-3-carbonitrile]	0.15 nM	0.17 nM	4.82 nM	17.1 nM
CC1Cc2cc(cnc2N)-c2c(nn(C)c2C(N)=O)CN(C)C(=O)c2ccc(F)cc21 (stereo not drawn) [Example 62, 7-amino-12-fluoro-2,10,16-trimethyl-15-oxo-2,9,10,15,16,17-hexahydro-8,4-(metheno)pyrazolo[3,4-d][2,8]benzodiazacyclotetradecine-3-carboxamide]	137 nM	253 nM	7610 nM	> 10000 nM
CC1Oc2nc(cnc2N)-c2c(C#N)nn3c2C(CC3)N(C)C(=O)c2ccc(F)cc21 [Example 74, (9R)-6-amino-11-fluoro-9,15-dimethyl-14-oxo-9,14,15,15a,16,17-hexahydro-7,3-(azeno)-8-oxa-1,5,15,17a-tetraazabenzo[11,12]cyclotetradeca[1,2,3-cd]pentalene-2-carbonitrile]	0.3 nM	0.86 nM	11.4 nM	51.9 nM
CC1Oc2nc(cnc2N)-c2c(C#N)nn3c2C(CC3)N(C)C(=O)c2ccc(F)cc21 [Example 75, (9R)-6-amino-11-fluoro-9,15-dimethyl-14-oxo-9,14,15,15a,16,17-hexahydro-7,3-(azeno)-8-oxa-1,5,15,17a-tetraazabenzo[11,12]cyclotetradeca[1,2,3-cd]pentalene-2-carbonitrile]	0.065 nM	0.095 nM	0.902 nM	7.06 nM

Second part, the compound after the results:

Ki [1]	Ki [2]	IC50 [3]	IC50 [4]	Compound
0.2 nM	1.2 nM	6.75 nM	68.9 nM	CCc1onc2c1-c1cnc(N)c(n1)O[C@H](C)c1cc(F)ccc1C(=O)N(C)C2 [Example 48, (10R)-7-amino-3-ethyl-12-fluoro-10,16-dimethyl-16,17-dihydro-8,4-(azeno)[1,2]oxazolo[4,3-h][2,5,11]benzoxadiazacyclotetradecin-15(10H)-one]
0.17 nM	1.5 nM	4.08 nM	80.8 nM	CCn1ncc2c1-c1cnc(N)c(n1)O[C@H](C)c1cc(F)ccc1C(=O)N(C)C2 [Example 49, (10R)-7-amino-3-ethyl-12-fluoro-10,16-dimethyl-16,17-dihydro-3H-8,4-(azeno)pyrazolo[3,4-h][2,5,11]benzoxadiazacyclotetradecin-15(10H)-one]
0.13 nM	0.28 nM	0.95 nM	6.25 nM	COc1snc2c1-c1cnc(N)c(n1)O[C@H](C)c1cc(F)ccc1C(=O)N(C)C2 [Example 51, (10R)-7-amino-12-fluoro-3-methoxy-10,16-dimethyl-16,17-dihydro-8,4-(azeno)[1,2]thiazolo[4,3-h][2,5,11]benzoxadiazacyclotetradecin-15(10H)-one]
